# Assay results: patent US12570675B2, “Boronic acid compounds” (LG CHEM, LTD., priority 2020, dated 2026)
# pIC50: −log10 of the molar value.
# Biological target: Proteasome chymotrypsin-like activity (S26 protein from RPMI8226 cells) (Homo sapiens, UniProt P28074)
# Type: biochemical
# Conditions: S26 protein from RPMI8226 cell extract 2 ug/well, substrate 20 uM, 37° C., 90 minutes; read-out: Proteasome chymotrypsin-like activity inhibition IC50
# How it was run: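 RPMI8226 myeloma cell lysate (S26 fraction, 20 mM Tris-HCl pH 8.0; 2 ug/well) incubated with compound serially diluted from 10 uM (0.5% DMSO) and 20 uM Suc-LLVY-AMC (chymotrypsin-like) or Z-LLE-AMC (caspase-like) for 90 min at 37 °C. Fluorescence read; IC50 from % of uninhibited signal.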
# Chain of Proteasome chymotrypsin-like activity (S26 protein from RPMI8226 cells) (P28074 60-263 limits assumed): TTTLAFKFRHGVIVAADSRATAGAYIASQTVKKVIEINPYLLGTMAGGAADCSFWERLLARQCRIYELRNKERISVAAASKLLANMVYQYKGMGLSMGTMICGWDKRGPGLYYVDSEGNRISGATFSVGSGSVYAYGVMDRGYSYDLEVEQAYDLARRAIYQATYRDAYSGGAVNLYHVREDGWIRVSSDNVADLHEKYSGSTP
row,SMILES,pIC50
1,"COc1ccc(COCC2=NOC(Cc3ccccc3)(C(=O)N[C@@H](Cc3ccccc3)B(O)O)C2)cc1 (stereo partly drawn) [Example 275, ((1R)-1-(5-benzyl-3-(((4-methoxybenzyl)oxy)methyl)-4,5-dihydroisoxazol-5-carboxamido)-2-phenylethyl)boronic acid]",> 7.30
2,"CC[C@H](NC(=O)C1(Cc2ccccc2)CC(CNC(=O)c2nccc3ccccc23)=NO1)B(O)O (stereo partly drawn) [Example 289, ((1R)-1-(5-benzyl-3-((isoquinolin-1-carboxamido)methyl)-4,5-dihydroisoxazol-5-carboxamido)propyl)boronic acid]",> 7.60
3,"CC[C@H](NC(=O)C1(Cc2ccccc2)CC(CNC(=O)c2cccn3ccnc23)=NO1)B(O)O (stereo partly drawn) [Example 297, ((1R)-1-(5-benzyl-3-((imidazo[1,2-a]pyridin-8-carboxamido)methyl)-4,5-dihydroisoxazol-5-carboxamido)propyl)boronic acid]",> 7.60
4,CC(C)C[C@H](NC(=O)C1(Cc2ccccc2)CC(CNC(=O)c2cccc3nccn23)=NO1)B(O)O (stereo partly shown) [Example 301],> 8.00
5,"O=C(NCC1=NOC(Cc2ccccc2)(C(=O)N[C@@H](Cc2ccccc2)B(O)O)C1)c1cccc2nccn12 (stereo partly drawn) [Example 302, ((1R)-1-(5-benzyl-3-((imidazo[1,2-a]pyridin-5-carboxamido)methyl)-4,5-dihydroisoxazol-5-carboxamido)-2-phenylethyl)boronic acid]",> 8.00
6,"CC[C@H](NC(=O)C1(Cc2ccccc2)CC(CNC(=O)c2cccc3ccccc23)=NO1)B(O)O (stereo partly drawn) [Example 303, ((1R)-1-(3-((1-naphthamido)methyl)-5-benzyl-4,5-dihydroisoxazol-5-carboxamido)propyl)boronic acid]",> 8.00
7,"CC(C)[C@H](NC(=O)C1(Cc2ccccc2)CC(CNC(=O)c2cccc3ccccc23)=NO1)B(O)O (stereo partly drawn) [Example 304, ((1R)-1-(3-((1-naphthamido)methyl)-5-benzyl-4,5-dihydroisoxazol-5-carboxamido)-2-methylpropyl)boronic acid]",> 8.00
8,CC(C)C[C@H](NC(=O)C1(Cc2ccccc2)CC(CNC(=O)c2cccn3cnnc23)=NO1)B(O)O (stereo partly shown) [Example 305],> 8.00
9,"O=C(NCC1=NOC(Cc2ccccc2)(C(=O)N[C@@H](Cc2ccccc2)B(O)O)C1)c1cccn2cnnc12 (stereo partly drawn) [Example 306, ((1R)-1-(3-(([1,2,4]triazolo[4,3-a]pyridin-8-carboxamido)methyl)-5-benzyl-4,5-dihydroisoxazol-5-carboxamido)-2-phenylethyl)boronic acid]",> 8.00
10,Cc1cccc(C(=O)NCC2=NOC(Cc3ccccc3)(C(=O)N[C@@H](CC(C)C)B(O)O)C2)c1 (stereo partly shown) [Example 307],> 8.00
11,CC(C)C[C@H](NC(=O)C1(Cc2ccccc2)CC(CNC(=O)c2ccnc(Cl)c2)=NO1)B(O)O (stereo partly shown) [Example 311],> 8.00
12,CC(C)C[C@H](NC(=O)C1(Cc2ccccc2)CC(CNC(=O)c2cccc3ncnn23)=NO1)B(O)O (stereo partly shown) [Example 312],> 7.60
13,"O=C(NCC1=NOC(Cc2ccccc2)(C(=O)N[C@@H](Cc2ccccc2)B(O)O)C1)c1cccc2ncnn12 (stereo partly drawn) [Example 313, ((1R)-1-(3-(([1,2,4]triazolo[1,5-a]pyridin-5-carboxamido)methyl)-5-benzyl-4,5-dihydroisoxazol-5-carboxamido)-2-phenylethyl)boronic acid]",> 8.00
14,"CC[C@H](NC(=O)C1(Cc2ccccc2)CC(CNC(=O)c2cc(Cl)ccc2Cl)=NO1)B(O)O (stereo partly drawn) [Example 314, ((1R)-1-(5-benzyl-3-((2,5-dichlorobenzamido)methyl)-4,5-dihydroisoxazol-5-carboxamido)propyl)boronic acid]",> 8.00
15,"CC(C)[C@H](NC(=O)C1(Cc2ccccc2)CC(CNC(=O)c2cc(Cl)ccc2Cl)=NO1)B(O)O (stereo partly drawn) [Example 315, ((1R)-1-(5-benzyl-3-((2,5-dichlorobenzamido)methyl)-4,5-dihydroisoxazol-5-carboxamido)-2-methylpropyl)boronic acid]",> 8.00
16,CC(C)C[C@H](NC(=O)C1(Cc2ccccc2)CC(CNC(=O)c2cccc(C#N)c2)=NO1)B(O)O (stereo partly shown) [Example 316],> 8.00
17,"N#Cc1cccc(C(=O)NCC2=NOC(Cc3ccccc3)(C(=O)N[C@@H](Cc3ccccc3)B(O)O)C2)c1 (stereo partly drawn) [Example 317, ((1R)-1-(5-benzyl-3-((3-cyanobenzamido)methyl)-4,5-dihydroisoxazol-5-carboxamido)-2-phenylethyl)boronic acid]",> 8.00
18,"CC[C@H](NC(=O)C1(Cc2ccccc2)CC(CNC(=O)c2cccc(Cl)n2)=NO1)B(O)O (stereo partly drawn) [Example 318, ((1R)-1-(5-benzyl-3-((6-chloropicolinamido)methyl)-4,5-dihydroisoxazol-5-carboxamido)propyl)boronic acid]",> 7.60
19,"CC(C)[C@H](NC(=O)C1(Cc2ccccc2)CC(CNC(=O)c2cccc(Cl)n2)=NO1)B(O)O (stereo partly drawn) [Example 319, ((1R)-1-(5-benzyl-3-((6-chloropicolinamido)methyl)-4,5-dihydroisoxazol-5-carboxamido)-2-methylpropyl)boronic acid]",> 8.00
20,CC(=O)Nc1cccc(C(=O)NCC2=NOC(Cc3ccccc3)(C(=O)N[C@@H](CC(C)C)B(O)O)C2)c1 (stereo partly shown) [Example 320],> 8.00
21,CC(C)C[C@H](NC(=O)C1(Cc2ccccc2)CC(CNC(=O)c2cccc(N(C)C)c2)=NO1)B(O)O (stereo partly shown) [Example 321],> 8.00
22,COc1cccc(C(=O)NCC2=NOC(Cc3ccccc3)(C(=O)N[C@@H](CC(C)C)B(O)O)C2)n1 (stereo partly shown) [Example 322],> 8.00

# More lines, now with the values ahead:
row,pIC50,SMILES
1,> 8.00,Cc1cc(COCC2=NOC(Cc3ccccc3)(C(=O)N[C@@H](CC(C)C)B(O)O)C2)ccn1 (stereo partly shown) [Example 276]
2,> 8.00,"Cc1cc(COCC2=NOC(Cc3ccccc3)(C(=O)N[C@@H](Cc3ccccc3)B(O)O)C2)ccn1 (stereo partly drawn) [Example 277, ((1R)-1-(5-benzyl-3-(((2-methylpyridin-4-yl)methoxy)methyl)-4,5-dihydroisoxazol-5-carboxamido)-2-phenylethyl)boronic acid]"
3,> 8.00,CC(C)C[C@H](NC(=O)C1(Cc2ccccc2)CC(COc2cccc3ccccc23)=NO1)B(O)O (stereo partly shown) [Example 278]
4,> 8.00,"O=C(N[C@@H](Cc1ccccc1)B(O)O)C1(Cc2ccccc2)CC(COc2cccc3ccccc23)=NO1 (stereo partly drawn) [Example 279, ((1R)-1-(5-benzyl-3-((naphthalen-1-yloxy)methyl)-4,5-dihydroisoxazol-5-carboxamido)-2-phenylethyl)boronic acid]"
5,> 8.00,CC(C)C[C@H](NC(=O)C1(Cc2ccccc2)CC(CNC(=O)c2cccc(C(F)(F)F)c2)=NO1)B(O)O (stereo partly shown) [Example 280]
6,> 8.00,"O=C(NCC1=NOC(Cc2ccccc2)(C(=O)N[C@@H](Cc2ccccc2)B(O)O)C1)c1cccc(C(F)(F)F)c1 (stereo partly drawn) [Example 281, ((1R)-1-(5-benzyl-3-((3-(trifluoromethyl)benzamido)methyl)-4,5-dihydroisoxazol-5-carboxamido)-2-phenylethyl)boronic acid]"
7,> 8.00,COc1ccc(C(=O)NCC2=NOC(Cc3ccccc3)(C(=O)N[C@@H](CC(C)C)B(O)O)C2)cc1 (stereo partly shown) [Example 282]
8,> 8.00,"COc1ccc(C(=O)NCC2=NOC(Cc3ccccc3)(C(=O)N[C@@H](Cc3ccccc3)B(O)O)C2)cc1 (stereo partly drawn) [Example 283, ((1R)-1-(5-benzyl-3-((4-methoxybenzamido)methyl)-4,5-dihydroisoxazol-5-carboxamido)-2-phenylethyl)boronic acid]"
9,> 8.00,COc1cccc(C(=O)NCC2=NOC(Cc3ccccc3)(C(=O)N[C@@H](CC(C)C)B(O)O)C2)c1 (stereo partly shown) [Example 284]
10,> 8.00,"COc1cccc(C(=O)NCC2=NOC(Cc3ccccc3)(C(=O)N[C@@H](Cc3ccccc3)B(O)O)C2)c1 (stereo partly drawn) [Example 285, ((1R)-1-(5-benzyl-3-((3-methoxybenzamido)methyl)-4,5-dihydroisoxazol-5-carboxamido)-2-phenylethyl)boronic acid]"
11,> 8.00,CC(C)C[C@H](NC(=O)C1(Cc2ccccc2)CC(CNC(=O)c2ccccc2Cl)=NO1)B(O)O (stereo partly shown) [Example 286]
12,> 8.00,CC(C)C[C@H](NC(=O)C1(Cc2ccccc2)CC(CNC(=O)c2ccc(Cl)cc2)=NO1)B(O)O (stereo partly shown) [Example 287]
13,> 8.00,"O=C(NCC1=NOC(Cc2ccccc2)(C(=O)N[C@@H](Cc2ccccc2)B(O)O)C1)c1nccc2ccccc12 (stereo partly drawn) [Example 288, ((1R)-1-(5-benzyl-3-((isoquinolin-1-carboxamido)methyl)-4,5-dihydroisoxazol-5-carboxamido)-2-phenylethyl)boronic acid]"
14,> 8.00,"CC(C)[C@H](NC(=O)C1(Cc2ccccc2)CC(CNC(=O)c2nccc3ccccc23)=NO1)B(O)O (stereo partly drawn) [Example 290, ((1R)-1-(5-benzyl-3-((isoquinolin-1-carboxamido)methyl)-4,5-dihydroisoxazol-5-carboxamido)-2-methylpropyl)boronic acid]"
15,> 8.00,"O=C(NCC1=NOC(Cc2ccccc2)(C(=O)N[C@@H](Cc2ccccc2)B(O)O)C1)c1cc(Cl)ccc1Cl (stereo partly drawn) [Example 296, ((1R)-1-(5-benzyl-3-((2,5-dichlorobenzamido)methyl)-4,5-dihydroisoxazol-5-carboxamido)-2-phenylethyl)boronic acid]"
16,> 8.00,"CC(C)[C@H](NC(=O)C1(Cc2ccccc2)CC(CNC(=O)c2cccn3ccnc23)=NO1)B(O)O (stereo partly drawn) [Example 298, ((1R)-1-(5-benzyl-3-((imidazo[1,2-a]pyridin-8-carboxamido)methyl)-4,5-dihydroisoxazol-5-carboxamido)-2-methylpropyl)boronic acid]"
17,> 8.00,"O=C(NCC1=NOC(Cc2ccccc2)(C(=O)N[C@@H](Cc2ccccc2)B(O)O)C1)c1cccc2ccccc12 (stereo partly drawn) [Example 299, ((1R)-1-(3-((1-naphthamido)methyl)-5-benzyl-4,5-dihydroisoxazol-5-carboxamido)-2-phenylethyl)boronic acid]"
18,> 8.00,"O=C(NCC1=NOC(Cc2ccccc2)(C(=O)N[C@@H](Cc2ccccc2)B(O)O)C1)c1cccn2ccnc12 (stereo partly drawn) [Example 300, ((1R)-1-(5-benzyl-3-((imidazo[1,2-a]pyridin-8-carboxamido)methyl)-4,5-dihydroisoxazol-5-carboxamido)-2-phenylethyl)boronic acid]"
